{"source": "paper PMC7248194", "about": "“Cell-Based Radiotracer Binding and Uptake Inhibition Assays: A Comparison of In Vitro Methods to Assess the Potency of Drugs That Target Monoamine Transporters” (Frontiers in Pharmacology, 2020)", "key": {"rSERT [1]": {"molecular_target": "T1, rSERT (Rattus norvegicus, UniProt P31652)", "T1 construct": "gene Slc6a4; full-length, stably expressed in HEK 293 cells (Vienna, 'cell line 3')", "T1 sequence (P31652 whole entry)": "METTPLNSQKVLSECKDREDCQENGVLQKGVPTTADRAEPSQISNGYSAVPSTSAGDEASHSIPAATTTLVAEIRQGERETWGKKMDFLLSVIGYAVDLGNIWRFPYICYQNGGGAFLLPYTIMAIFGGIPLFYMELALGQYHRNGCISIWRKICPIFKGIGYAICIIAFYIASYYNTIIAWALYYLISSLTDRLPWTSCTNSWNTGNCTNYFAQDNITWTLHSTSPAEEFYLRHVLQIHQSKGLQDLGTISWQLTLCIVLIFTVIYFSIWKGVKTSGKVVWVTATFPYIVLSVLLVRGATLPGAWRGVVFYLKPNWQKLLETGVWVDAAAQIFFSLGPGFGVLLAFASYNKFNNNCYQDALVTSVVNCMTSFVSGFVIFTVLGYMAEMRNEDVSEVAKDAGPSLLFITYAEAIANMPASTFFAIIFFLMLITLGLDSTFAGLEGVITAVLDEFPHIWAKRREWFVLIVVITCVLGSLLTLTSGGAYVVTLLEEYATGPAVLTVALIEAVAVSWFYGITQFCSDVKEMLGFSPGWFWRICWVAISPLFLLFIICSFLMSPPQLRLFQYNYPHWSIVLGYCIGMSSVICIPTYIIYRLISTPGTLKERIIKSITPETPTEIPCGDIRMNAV", "experiment": "[3H]-CFT saturation binding, adherent HEK […] cells", "type": "cell-based", "settings": "read-out: Kd ± SD"}, "hNET": {"molecular_target": "T2, hNET (Homo sapiens, UniProt P23975)", "T2 construct": "gene SLC6A2; full-length, stably expressed in HEK 293 cells (Basel, 'cell line 2')", "T2 sequence (P23975 whole entry)": "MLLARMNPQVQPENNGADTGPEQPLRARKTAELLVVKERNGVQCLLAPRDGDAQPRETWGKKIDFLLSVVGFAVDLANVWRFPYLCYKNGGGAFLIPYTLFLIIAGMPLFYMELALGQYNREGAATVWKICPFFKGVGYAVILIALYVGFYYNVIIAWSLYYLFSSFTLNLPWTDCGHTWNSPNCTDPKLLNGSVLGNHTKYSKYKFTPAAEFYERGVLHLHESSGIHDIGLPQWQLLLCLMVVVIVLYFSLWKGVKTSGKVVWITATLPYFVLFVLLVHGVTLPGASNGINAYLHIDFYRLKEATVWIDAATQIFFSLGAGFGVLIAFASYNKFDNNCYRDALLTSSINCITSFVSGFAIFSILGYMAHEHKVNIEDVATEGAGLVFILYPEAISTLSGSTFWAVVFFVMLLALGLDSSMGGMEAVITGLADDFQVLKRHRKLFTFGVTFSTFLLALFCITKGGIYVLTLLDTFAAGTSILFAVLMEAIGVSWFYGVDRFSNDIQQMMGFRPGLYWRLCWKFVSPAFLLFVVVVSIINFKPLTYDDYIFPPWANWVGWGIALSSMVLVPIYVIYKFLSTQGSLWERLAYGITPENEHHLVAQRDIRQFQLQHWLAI", "experiment": "[3H]-CFT saturation binding, adherent HEK […] cells", "type": "cell-based", "settings": "read-out: Kd ± SD"}, "rNET": {"molecular_target": "T3, rNET (Rattus norvegicus, UniProt Q63380)", "T3 construct": "gene Slc6a2; full-length, stably expressed in HEK 293 cells (Vienna, 'cell line 3')", "T3 sequence (Q63380 1-617)": "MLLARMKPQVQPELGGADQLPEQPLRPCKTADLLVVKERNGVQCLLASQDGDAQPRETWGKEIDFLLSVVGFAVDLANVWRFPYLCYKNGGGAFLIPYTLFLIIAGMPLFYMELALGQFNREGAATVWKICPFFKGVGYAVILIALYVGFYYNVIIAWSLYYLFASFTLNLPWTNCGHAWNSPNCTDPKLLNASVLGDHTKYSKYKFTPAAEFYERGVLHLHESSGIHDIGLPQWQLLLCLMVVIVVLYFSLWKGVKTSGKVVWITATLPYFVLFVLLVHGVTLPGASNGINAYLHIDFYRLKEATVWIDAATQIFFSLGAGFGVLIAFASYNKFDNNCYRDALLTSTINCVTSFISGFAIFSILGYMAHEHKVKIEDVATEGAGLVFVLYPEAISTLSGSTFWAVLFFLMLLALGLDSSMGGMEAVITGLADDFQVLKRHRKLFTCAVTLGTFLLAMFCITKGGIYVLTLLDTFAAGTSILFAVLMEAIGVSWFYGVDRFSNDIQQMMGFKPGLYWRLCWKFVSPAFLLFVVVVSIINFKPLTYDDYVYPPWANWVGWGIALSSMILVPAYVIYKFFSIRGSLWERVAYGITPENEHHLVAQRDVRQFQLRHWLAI", "experiment": "[3H]-CFT saturation binding, adherent HEK […] cells", "type": "cell-based", "settings": "read-out: Kd ± SD"}, "hSERT": {"molecular_target": "T4, hSERT (Homo sapiens, UniProt P31645)", "T4 construct": "gene SLC6A4; full-length, stably expressed in HEK 293 cells (Basel, 'cell line 2')", "T4 sequence (P31645 whole entry)": "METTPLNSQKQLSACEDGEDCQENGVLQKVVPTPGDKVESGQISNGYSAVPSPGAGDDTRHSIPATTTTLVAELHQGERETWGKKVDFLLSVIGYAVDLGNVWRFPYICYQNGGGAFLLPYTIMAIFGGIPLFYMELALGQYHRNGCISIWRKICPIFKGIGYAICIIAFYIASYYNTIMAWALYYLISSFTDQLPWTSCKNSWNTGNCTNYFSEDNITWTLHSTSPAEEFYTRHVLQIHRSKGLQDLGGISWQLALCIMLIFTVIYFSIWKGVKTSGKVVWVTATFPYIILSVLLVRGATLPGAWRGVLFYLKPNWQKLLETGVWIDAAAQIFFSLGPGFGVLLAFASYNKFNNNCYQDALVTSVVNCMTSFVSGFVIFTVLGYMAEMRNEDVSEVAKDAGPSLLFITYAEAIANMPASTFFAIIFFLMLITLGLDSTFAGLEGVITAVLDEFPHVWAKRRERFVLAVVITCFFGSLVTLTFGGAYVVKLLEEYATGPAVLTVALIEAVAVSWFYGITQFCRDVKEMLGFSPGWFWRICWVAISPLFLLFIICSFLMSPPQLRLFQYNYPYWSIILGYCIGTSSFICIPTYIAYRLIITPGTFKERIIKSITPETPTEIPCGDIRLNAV", "experiment": "[3H]-CFT saturation binding, adherent HEK […] cells", "type": "cell-based", "settings": "read-out: Kd ± SD"}, "NCCc1c[nH]c2ccc(O)cc12": {"tested_on": "T5, NCCc1c[nH]c2ccc(O)cc12", "T5 construct": "full-length, stably expressed in HEK 293 cells (Basel, 'cell line 2')", "experiment": "cells, lysate or membranes", "type": "cell-based, Homo sapiens", "settings": "cell line 2, labelled compound, 200 nM [3H]-5-HT diluted with unlabelled, KHB pH 7.3, room temperature, 1 min"}, "rSERT [2]": {"molecular_target": "T1, rSERT", "experiment": "saturation uptake, adherent HEK […] cells", "type": "cell-based", "settings": "cell line 3; labelled compound, 200 nM [3H]-5-HT diluted with unlabelled; KHB pH 7.3, room temperature, 1 min; read-out: Km ± SD"}, "[3]": {"substrate": "NCCc1ccc(O)c(O)c1", "experiment": "cells, lysate or membranes", "type": "cell-based, Rattus norvegicus", "settings": "cell line 3, labelled compound, 200 nM [3H]-dopamine diluted with unlabelled, KHB pH 7.3, room temperature, 1 min"}, "[4]": {"substrate": "NCCc1ccc(O)c(O)c1", "experiment": "cells, lysate or membranes", "settings": "cell line 2, labelled compound, 200 nM [3H]-dopamine diluted with unlabelled, KHB pH 7.3, room temperature, 1 min"}}}
{"molecule": "COC(=O)[C@H]1[C@@H](c2ccc(F)cc2)C[C@@H]2CC[C@H]1N2C", "note": "[CFT, 2-β-carbomethoxy-3-β-(4-fluorophenyl)tropane]", "values": [{"measurement": "Kd", "setting": "rSERT [1]", "result": "1130 ± 70", "unit": "nM"}, {"measurement": "Kd", "setting": "hNET", "result": "70 ± 20", "unit": "nM"}, {"measurement": "Kd", "setting": "rNET", "result": "130 ± 70", "unit": "nM"}, {"measurement": "Kd", "setting": "hSERT", "result": "1200 ± 400", "unit": "nM"}]}
{"molecule": "hSERT (Homo sapiens)", "values": [{"measurement": "Km", "setting": "NCCc1c[nH]c2ccc(O)cc12", "result": "4.1 ± 1.0", "unit": "µM"}]}
{"molecule": "NCCc1c[nH]c2ccc(O)cc12", "note": "[5-HT]", "values": [{"measurement": "Km", "setting": "rSERT [2]", "result": "3.4 ± 1.5", "unit": "µM"}]}
{"molecule": "rDAT (Rattus norvegicus) (protein, full-length, stably expressed in HEK 293 cells (Vienna, 'cell line 3')) MSKSKCSVGPMSSVVAPAKESNAVGPREVELILVKEQNGVQLTNSTLINPPQTPVEAQERETWSKKIDFLLSVIGFAVDLANVWRFPYLCYKNGGGAFLVPYLLFMVIAGMPLFYMELALGQFNREGAAGVWKICPVLKGVGFTVILISFYVGFFYNVIIAWALHYFFSSFTMDLPWIHCNNTWNSPNCSDAHASNSSDGLGLNDTFGTTPAAEYFERGVLHLHQSRGIDDLGPPRWQLTACLVLVIVLLYFSLWKGVKTSGKVVWITATMPYVVLTALLLRGVTLPGAMDGIRAYLSVDFYRLCEASVWIDAATQVCFSLGVGFGVLIAFSSYNKFTNNCYRDAIITTSINSLTSFSSGFVVFSFLGYMAQKHNVPIRDVATDGPGLIFIIYPEAIATLPLSSAWAAVFFLMLLTLGIDSAMGGMESVITGLVDEFQLLHRHRELFTLGIVLATFLLSLFCVTNGGIYVFTLLDHFAAGTSILFGVLIEAIGVAWFYGVQQFSDDIKQMTGQRPNLYWRLCWKLVSPCFLLYVVVVSIVTFRPPHYGAYIFPDWANALGWIIATSSMAMVPIYATYKFCSLPGSFREKLAYAITPEKDHQLVDRGEVRQFTLRHWLLL", "values": [{"measurement": "Km", "setting": "[3]", "result": "8.8 ± 3.9", "unit": "µM"}]}
{"molecule": "hDAT (Homo sapiens) (protein) MSKSKCSVGLMSSVVAPAKEPNAVGPKEVELILVKEQNGVQLTSSTLTNPRQSPVEAQDRETWGKKIDFLLSVIGFAVDLANVWRFPYLCYKNGGGAFLVPYLLFMVIAGMPLFYMELALGQFNREGAAGVWKICPILKGVGFTVILISLYVGFFYNVIIAWALHYLFSSFTTELPWIHCNNSWNSPNCSDAHPGDSSGDSSGLNDTFGTTPAAEYFERGVLHLHQSHGIDDLGPPRWQLTACLVLVIVLLYFSLWKGVKTSGKVVWITATMPYVVLTALLLRGVTLPGAIDGIRAYLSVDFYRLCEASVWIDAATQVCFSLGVGFGVLIAFSSYNKFTNNCYRDAIVTTSINSLTSFSSGFVVFSFLGYMAQKHSVPIGDVAKDGPGLIFIIYPEAIATLPLSSAWAVVFFIMLLTLGIDSAMGGMESVITGLIDEFQLLHRHRELFTLFIVLATFLLSLFCVTNGGIYVFTLLDHFAAGTSILFGVLIEAIGVAWFYGVGQFSDDIQQMTGQRPSLYWRLCWKLVSPCFLLFVVVVSIVTFRPPHYGAYIFPDWANALGWVIATSSMAMVPIYAAYKFCSLPGSFREKLAYAIAPEKDRELVDRGEVRQFTLRHWLKV", "values": [{"measurement": "Km", "setting": "[4]", "result": "5.5 ± 0.8", "unit": "µM"}]}
